We go through 3 compounds from patent US10099993B2, “Metabotropic glutamate receptor positive allosteric modulators (PAMS) and uses thereof” (Sanford-Burnham Medical Research Institute, priority 2014, dated 2018).

The format of data set [1] is in vitro ADME. Conditions: rat, 1 h.
The conditions of data set [2]: rat, microsomes, 1 h.
For data set [3] the following is noted: 100 μM, pH 7.2.
In data set [4] the target is mGlu1 (Rattus norvegicus (Rat), UniProt P23385). The data set is described as follows: mGlu1 calcium assay. The data set is classed as cell-based. Conditions: full agonist concentration-response ± 10 μM compound.
In data set [5] the target is mGlu4 (Rattus norvegicus (Rat), UniProt P31423). The data set is described as follows: mGlu4 GIRK thallium flux assay. It counts as cell-based. Conditions: full agonist concentration-response ± 10 μM compound.
Data set [6] concerns the target mGlu5 (Rattus norvegicus (Rat), UniProt P31424). The data set is described as follows: mGlu5 calcium assay. Conditions: full agonist concentration-response ± 10 μM compound. It counts as cell-based.
The target in data set [7] is mGlu6 (Rattus norvegicus (Rat), UniProt P35349). The data set is described as follows: mGlu6 GIRK thallium flux assay. The data set is classed as cell-based. The conditions noted are these: full agonist concentration-response ± 10 μM compound.
Chain of mGlu6 (P35349 24-871): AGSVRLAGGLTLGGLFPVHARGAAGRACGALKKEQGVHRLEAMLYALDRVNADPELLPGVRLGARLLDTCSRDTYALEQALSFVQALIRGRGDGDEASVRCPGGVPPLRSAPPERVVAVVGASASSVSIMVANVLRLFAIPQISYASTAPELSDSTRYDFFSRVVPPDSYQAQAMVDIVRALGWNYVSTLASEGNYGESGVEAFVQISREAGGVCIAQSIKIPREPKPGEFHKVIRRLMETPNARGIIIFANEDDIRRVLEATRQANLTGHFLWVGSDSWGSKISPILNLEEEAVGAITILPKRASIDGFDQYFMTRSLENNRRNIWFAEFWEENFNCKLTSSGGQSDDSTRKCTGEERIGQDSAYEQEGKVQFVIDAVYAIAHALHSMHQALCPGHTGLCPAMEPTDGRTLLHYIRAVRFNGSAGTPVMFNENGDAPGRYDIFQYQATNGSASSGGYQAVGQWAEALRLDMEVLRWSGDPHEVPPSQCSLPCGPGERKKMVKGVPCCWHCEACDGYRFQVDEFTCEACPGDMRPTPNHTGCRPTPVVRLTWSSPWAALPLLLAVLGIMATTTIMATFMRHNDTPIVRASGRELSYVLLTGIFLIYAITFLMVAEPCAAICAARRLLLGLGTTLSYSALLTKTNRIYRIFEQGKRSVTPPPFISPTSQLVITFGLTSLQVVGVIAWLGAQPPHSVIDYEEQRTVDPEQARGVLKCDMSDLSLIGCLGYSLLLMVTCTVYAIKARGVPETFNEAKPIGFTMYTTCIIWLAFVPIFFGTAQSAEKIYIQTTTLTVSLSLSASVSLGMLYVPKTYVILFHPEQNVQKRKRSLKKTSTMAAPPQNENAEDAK
For data set [8], the target named is mGlu7 (Rattus norvegicus (Rat), UniProt P35400). The data set is described as follows: mGlu7 GIRK thallium flux assay. The data set is classed as cell-based. Conditions: full L-AP4 concentration-response ± 10 μM compound.
In data set [9] the target is mGlu8 (Rattus norvegicus (Rat), UniProt P70579). The data set is described as follows: mGlu8 GIRK thallium flux assay. Conditions: full agonist concentration-response ± 10 μM compound. The data set is classed as cell-based.
Chain of mGlu8 (P70579 34-908): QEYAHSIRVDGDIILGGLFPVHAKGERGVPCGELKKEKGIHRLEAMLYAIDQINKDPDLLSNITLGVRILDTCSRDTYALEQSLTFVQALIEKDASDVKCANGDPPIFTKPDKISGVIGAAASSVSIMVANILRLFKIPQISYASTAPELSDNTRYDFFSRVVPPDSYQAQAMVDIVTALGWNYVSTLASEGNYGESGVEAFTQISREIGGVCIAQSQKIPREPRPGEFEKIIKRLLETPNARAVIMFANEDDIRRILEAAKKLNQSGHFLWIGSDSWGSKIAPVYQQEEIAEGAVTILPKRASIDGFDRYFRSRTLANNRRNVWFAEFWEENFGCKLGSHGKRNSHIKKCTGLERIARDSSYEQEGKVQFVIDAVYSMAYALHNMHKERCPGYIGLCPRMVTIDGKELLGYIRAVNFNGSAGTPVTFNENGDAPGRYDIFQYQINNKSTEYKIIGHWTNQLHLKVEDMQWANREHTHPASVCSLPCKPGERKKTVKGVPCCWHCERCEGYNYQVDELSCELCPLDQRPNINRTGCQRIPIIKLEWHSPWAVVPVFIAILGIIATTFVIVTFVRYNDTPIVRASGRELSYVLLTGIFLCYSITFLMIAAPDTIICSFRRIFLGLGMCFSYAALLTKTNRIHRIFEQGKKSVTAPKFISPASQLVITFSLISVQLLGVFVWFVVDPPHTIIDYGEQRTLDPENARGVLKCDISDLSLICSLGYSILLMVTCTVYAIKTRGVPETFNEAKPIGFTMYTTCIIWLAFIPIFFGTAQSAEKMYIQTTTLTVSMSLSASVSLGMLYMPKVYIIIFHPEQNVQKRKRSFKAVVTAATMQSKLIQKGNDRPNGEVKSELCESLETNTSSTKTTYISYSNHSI
Data set [10] relates to forty-five CNS receptors. In words: CNS receptors panel (NIMH PDSP), radioligand binding. The conditions noted are these: 10 μM.
Data set [11] deals with Adrenergic α2C (Homo sapiens (Human), UniProt P18825). The data set is described as follows: PDSP radioligand binding. Conditions: displacement of radioligand.
Chain of Adrenergic α2C (P18825 whole entry): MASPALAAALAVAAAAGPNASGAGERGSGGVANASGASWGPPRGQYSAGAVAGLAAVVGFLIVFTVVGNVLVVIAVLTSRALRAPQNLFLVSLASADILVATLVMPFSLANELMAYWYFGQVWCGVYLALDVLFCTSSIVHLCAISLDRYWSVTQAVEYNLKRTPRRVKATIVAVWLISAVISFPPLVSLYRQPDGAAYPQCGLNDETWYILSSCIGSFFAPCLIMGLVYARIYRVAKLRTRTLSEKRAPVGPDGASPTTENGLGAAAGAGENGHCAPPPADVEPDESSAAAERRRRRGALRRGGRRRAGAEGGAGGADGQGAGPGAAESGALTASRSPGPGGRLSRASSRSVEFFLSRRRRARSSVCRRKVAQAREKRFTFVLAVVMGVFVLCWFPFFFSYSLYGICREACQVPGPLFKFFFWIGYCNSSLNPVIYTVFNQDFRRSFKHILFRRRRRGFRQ
Data set [12] has as its target Dopamine D2 (Homo sapiens (Human), UniProt P14416). The data set is described as follows: PDSP radioligand binding. The conditions noted are these: Dopamine D2, 10 μM, displacement of radioligand.
The target in data set [13] is Dopamine D5 (Homo sapiens (Human), UniProt P21918). In words: PDSP radioligand binding. The conditions noted are these: Dopamine D5, 10 μM, displacement of radioligand.
For data set [14], the target named is Histamine H1 (Homo sapiens (Human), UniProt P35367). In words: PDSP radioligand binding. Conditions: Histamine H1, 10 μM, displacement of radioligand.
In data set [15] the target is Muscarinic M2 (Homo sapiens (Human), UniProt P08172). In words: PDSP radioligand binding. Conditions: Muscarinic M2, 10 μM, displacement of radioligand.
The target in data set [16] is Muscarinic M4 (Homo sapiens (Human), UniProt P08173). The data set is described as follows: PDSP radioligand binding. Conditions: Muscarinic M4, 10 μM, displacement of radioligand.
Data set [17] deals with Peripheral benzodiazepine receptor ([3H]PK11195) (Rattus norvegicus (Rat), UniProt P16257). The data set is described as follows: PDSP radioligand binding.
In data set [18] the target is Serotonin (5-Hydroxytryptamine) 5-HT2A (Homo sapiens (Human), UniProt P28223). In words: PDSP radioligand binding. The conditions noted are these: displacement of radioligand.
Data set [19] deals with Transporter, Serotonin (5-Hydroxytryptamine) (SERT) (Homo sapiens (Human), UniProt P31645). In words: PDSP radioligand binding. Conditions: displacement of radioligand.
Data set [20] has as its target mGlu2 (Rattus norvegicus (Rat), UniProt P31421). In words: mGlu2 GIRK thallium flux assay.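 Further: Cell-based assay, rate of fluorescence rise right after thallium plus agonist addition read on a kinetic imaging plate reader, normalized to vehicle and maximal agonist control.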
In data set [21] the target is mGlu3 (Rattus norvegicus (Rat), UniProt P31422). In words: mGlu3 GIRK thallium flux assay.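 On all read-outs here: kinetic fluorescence slope read shortly after thallium plus agonist addition, scaled between vehicle and maximal agonist control.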 Conditions: for General activity at mGlu3: full agonist concentration-response ± 10 μM compound.
Chain of mGlu3 (P31422 23-879): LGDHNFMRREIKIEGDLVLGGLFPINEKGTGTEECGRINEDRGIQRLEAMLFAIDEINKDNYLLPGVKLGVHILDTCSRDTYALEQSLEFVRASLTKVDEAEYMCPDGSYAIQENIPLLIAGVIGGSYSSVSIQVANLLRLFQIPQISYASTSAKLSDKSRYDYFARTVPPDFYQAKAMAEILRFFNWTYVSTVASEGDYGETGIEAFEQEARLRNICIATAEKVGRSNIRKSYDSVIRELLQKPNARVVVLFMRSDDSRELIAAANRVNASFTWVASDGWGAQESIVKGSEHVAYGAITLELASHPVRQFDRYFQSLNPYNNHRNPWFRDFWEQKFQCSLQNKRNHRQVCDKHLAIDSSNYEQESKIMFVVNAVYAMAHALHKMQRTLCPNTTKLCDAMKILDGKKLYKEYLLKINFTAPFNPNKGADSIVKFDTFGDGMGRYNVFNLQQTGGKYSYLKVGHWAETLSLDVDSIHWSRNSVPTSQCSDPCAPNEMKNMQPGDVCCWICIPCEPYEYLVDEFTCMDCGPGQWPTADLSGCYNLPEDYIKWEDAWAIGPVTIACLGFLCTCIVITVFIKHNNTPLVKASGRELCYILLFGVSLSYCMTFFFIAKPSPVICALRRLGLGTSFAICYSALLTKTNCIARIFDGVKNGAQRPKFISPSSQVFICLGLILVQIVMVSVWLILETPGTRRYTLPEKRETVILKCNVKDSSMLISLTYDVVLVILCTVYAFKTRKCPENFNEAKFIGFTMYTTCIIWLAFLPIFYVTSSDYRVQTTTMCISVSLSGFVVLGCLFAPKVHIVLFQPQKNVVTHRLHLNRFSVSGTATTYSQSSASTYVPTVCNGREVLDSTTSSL
A short description of data set [22]: In vivo PK in rats, i.p. administration. The conditions noted are these: rats, i.p., 10 mg/kg, Tmax 30 min.
For data set [23] the following is noted: rat, in vivo, ip, 10 mg/kg.

Chain of mGlu2 (P31421 19-872): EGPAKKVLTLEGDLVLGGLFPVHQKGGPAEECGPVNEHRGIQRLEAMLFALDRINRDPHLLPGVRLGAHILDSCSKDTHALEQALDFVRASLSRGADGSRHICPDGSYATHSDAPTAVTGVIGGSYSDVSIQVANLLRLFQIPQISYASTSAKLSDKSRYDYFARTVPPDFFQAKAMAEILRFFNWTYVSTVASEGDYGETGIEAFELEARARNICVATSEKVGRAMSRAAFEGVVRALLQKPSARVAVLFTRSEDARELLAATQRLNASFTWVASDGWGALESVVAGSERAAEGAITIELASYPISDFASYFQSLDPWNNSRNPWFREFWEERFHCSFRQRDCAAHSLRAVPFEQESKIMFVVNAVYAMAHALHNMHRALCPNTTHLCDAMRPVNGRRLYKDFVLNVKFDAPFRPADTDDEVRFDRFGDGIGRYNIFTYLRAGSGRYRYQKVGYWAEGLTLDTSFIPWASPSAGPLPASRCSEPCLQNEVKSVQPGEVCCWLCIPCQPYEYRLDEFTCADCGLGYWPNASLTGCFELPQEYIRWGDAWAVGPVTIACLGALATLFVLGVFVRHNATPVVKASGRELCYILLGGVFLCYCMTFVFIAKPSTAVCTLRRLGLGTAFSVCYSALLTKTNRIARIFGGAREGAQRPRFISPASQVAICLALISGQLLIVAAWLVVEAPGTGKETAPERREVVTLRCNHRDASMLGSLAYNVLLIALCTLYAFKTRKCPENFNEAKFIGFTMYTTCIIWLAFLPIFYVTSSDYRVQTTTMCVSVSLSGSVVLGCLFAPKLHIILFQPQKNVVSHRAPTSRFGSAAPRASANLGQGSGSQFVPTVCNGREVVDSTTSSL
Chain of mGlu5 (P31424 21-1203): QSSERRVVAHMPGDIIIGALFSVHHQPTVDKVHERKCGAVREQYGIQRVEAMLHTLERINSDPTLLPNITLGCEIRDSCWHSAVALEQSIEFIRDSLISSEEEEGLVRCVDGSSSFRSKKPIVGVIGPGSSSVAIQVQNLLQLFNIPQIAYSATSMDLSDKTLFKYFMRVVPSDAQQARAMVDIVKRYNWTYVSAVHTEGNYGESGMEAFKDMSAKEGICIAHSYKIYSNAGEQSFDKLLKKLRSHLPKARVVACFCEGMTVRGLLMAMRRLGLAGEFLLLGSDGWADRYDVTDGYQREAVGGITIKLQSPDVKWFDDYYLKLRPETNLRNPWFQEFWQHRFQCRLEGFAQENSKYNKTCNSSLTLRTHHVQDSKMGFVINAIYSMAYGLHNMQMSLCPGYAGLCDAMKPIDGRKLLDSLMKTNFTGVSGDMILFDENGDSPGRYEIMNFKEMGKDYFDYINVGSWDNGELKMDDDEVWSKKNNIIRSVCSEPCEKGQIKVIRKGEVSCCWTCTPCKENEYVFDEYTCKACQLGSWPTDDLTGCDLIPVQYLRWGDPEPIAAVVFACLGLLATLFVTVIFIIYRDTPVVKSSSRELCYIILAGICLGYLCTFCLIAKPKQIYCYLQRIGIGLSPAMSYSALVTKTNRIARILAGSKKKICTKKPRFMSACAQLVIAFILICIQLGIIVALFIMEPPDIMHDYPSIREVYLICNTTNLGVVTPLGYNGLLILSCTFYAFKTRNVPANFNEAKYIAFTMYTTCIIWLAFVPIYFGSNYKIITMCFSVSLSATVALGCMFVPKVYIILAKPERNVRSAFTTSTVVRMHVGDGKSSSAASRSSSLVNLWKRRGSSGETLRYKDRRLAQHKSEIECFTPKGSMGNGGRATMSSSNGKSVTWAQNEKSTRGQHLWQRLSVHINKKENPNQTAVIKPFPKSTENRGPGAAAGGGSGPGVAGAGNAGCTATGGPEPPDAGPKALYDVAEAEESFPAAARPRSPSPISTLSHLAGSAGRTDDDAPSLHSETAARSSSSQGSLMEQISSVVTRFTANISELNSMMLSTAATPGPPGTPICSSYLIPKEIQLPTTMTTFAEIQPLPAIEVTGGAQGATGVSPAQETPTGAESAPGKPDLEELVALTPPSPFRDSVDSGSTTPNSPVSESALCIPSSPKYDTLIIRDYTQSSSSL

`COc1cc(C(=O)O)ccc1OCCCCOc1ccc(C(=O)CC2CCCC2)c(O)c1C` [Compound 45, 4-{4-[4-(2-Cyclopentylacetyl)-3-hydroxy-2-methylphenoxy]butoxy}-methoxybenzoic acid]: in data set [1], the “Plasma Stability, percent remaining” value was 100%. For the same compound, the “Microsomal stability, percent remaining” value in data set [2] came to 31%. Moreover, the “PAMPA (LogPapp)” value in data set [3] is −6.54.
Turning to `COc1ccc(C(=O)O)cc1OCCCCOc1ccc(C(=O)CC(C)(C)C)c(O)c1C` [compound 72, 3-(4-(4-(3,3-Dimethylbutanoyl)-3-hydroxy-2-methylphenoxy)butoxy)-4-methoxybenzoic acid], in data set [4], the “General activity at mGlu1” value was “inactive^b”. Further, the “General activity at mGlu4” value in data set [5] is “inactive^b”. For the same compound, in data set [6], the “General activity at mGlu5” value was “inactive^b”. Moreover, the “General activity at mGlu6” value in [7] is “inactive^b”. In addition, the “General activity at mGlu7” value in [8] was “inactive^b”. Moreover, in [9], the “General activity at mGlu8” value is “inactive^b”. For the same compound, in data set [10], the “binding activity at forty-five CNS receptors” value is “no binding activity was detected”. The inhibition at 10 µM is 0.6% in data set [11]; 1% in [12]; -0.9% in [13]; 0.2% in data set [14]; -1% in data set [15]; -0.9% in [16]. Further, the values for the inhibition at 10 µM in [17], in data set [18] and in data set [19] were 1%, -0.6% and 0.3%, respectively. Besides, the “General activity at mGlu2” value in data set [20] (full agonist concentration-response ± 10 μM compound) is reported as “Ago-PAM”. The “Emin, minimal response of the concentration-response of agonist” value in [20] (mGlu2, 10 μM compound) is on record as “Emin = 72%”; in data set [21] (mGlu3, 10 μM compound), “Emin = 54%”. Also, in data set [21], the “General activity at mGlu3” value is “Ago-PAM”. Moreover, the “Plasma, maximum concentration” value in data set [22] turned out to be 2.44 ± 2.19 µM.
As to `COc1cc(C(=O)O)ccc1OCCCCOc1ccc(C(=O)CC(C)(C)C)c(O)c1C` [compound 73], the “General activity at mGlu1” value in data set [4] is “inactive^b”. In [5], the “General activity at mGlu4” value was “inactive^b”. The “General activity at mGlu5” value in [6] is “inactive^b”. Besides, the “General activity at mGlu6” value in [7] was “PAM”. The “General activity at mGlu7” value in [8] is “inactive^b”. Moreover, the “General activity at mGlu8” value in [9] is “inactive^b”. Also, in data set [3], the “PAMPA (LogPapp)” value is recorded as −5.46. Also, the “Brain: Plasma” value in [23] was 0.02 ± 0.01. Further, in data set [21], the “General activity at mGlu3” value is “Ago-PAM”.

For orientation: inhibition means the drop in the measured response relative to a control, in per cent.
